Measurements from publication PMC11234460, “In Silico Discovery of Stapled Peptide Inhibitor Targeting the Nur77‐PPARγ Interaction and Its Anti‐Breast‐Cancer Efficacy” (Advanced Science, 2024).
Where a SMILES comes first, the peptide text is derived from it. Bridges are numbered along the chain shown (N, C = ends). [ ]: non-standard residue; d: D form. S5 = C=CCCC[C@](C)(N)C(=O)O

Assays:
MDA-BoM-1833 cells = test: Cell viability assay (CCK-8); type: cell-based; settings: MDA-BoM-1833, 5 × 10^−6 M, 24 h
Description: (§2) MCF7, MDA‐MB‐231, and MDA‐BoM‐1833 cells (5000 cells/well) were seeded in 96‐well plates and cultured overnight at 37°C and 5% CO2. The cells were then treated with fresh basic medium containing various concentrations (1/2/5/10/20 × 10^−6 M) of compounds. After 24 h of incubation, the cells were incubated with a basic medium containing 10% Cell Counting Kit‐8 (Dojindo, CK‐04) for 2 h. Cell viability was evaluated by measuring the absorbance at 450 nm. The formula used was [(As‐Ab)/(Ac‐Ab)] × 100%, where as represents the absorbance of the drug‐treated group, Ac represents the absorbance of the control group treated with medium, and Ab represents the absorbance of the blank control containing only medium.

MCF7 cells [1] = test: qPCR of CD36 and FABP4; type: cell-based, human; settings: n = 3
MDA-MB-231 cells = test: Cell viability assay (CCK-8); type: cell-based; settings: MDA-MB-231, 5 × 10^−6 M, 24 h
Description: as §2

α-chymotrypsin [2] = test: Protease stability in α-chymotrypsin solution; type: in vitro ADME; settings: α-chymotrypsin solution; α-chymotrypsin 0.5 ng µL^−1 in PBS (5 × 10^−2 M, 2 × 10^−3 M CaCl2, pH 7.4); 100 µL of 1 × 10^−3 M peptide + 1 mL enzyme; room temperature; 5-480 min; quenched with 1 M HCl; analytical HPLC at 214 nm
Description: (§1) The peptides were dissolved in PBS (pH 7.4) to a final concentration of 1 × 10^−3 M. α‐Chymotrypsin was dissolved in PBS (5 × 10^−2 M, containing 2 × 10^−3 M CaCl2, pH 7.4) to a final concentration of 0.5 ng µL^−1. Subsequently, 100 µL peptides were incubated with α‐chymotrypsin (1 mL) at room temperature, and 100 µL of the digestion mixture was collected at different times (5/10/20/30/60/120/240/480 min) and added to a centrifuge tube containing 20 µL of 1 M HCl to quench the enzymatic reaction. The solution of α‐Chymotrypsin peptide fragments was monitored by analytical HPLC to determine the fraction of protease degradation at 214 nm.

α-chymotrypsin [3] = molecular target: α-chymotrypsin (Bos taurus, UniProt P00766); test: Protease stability in α-chymotrypsin solution; type: in vitro ADME; settings: α-chymotrypsin, PBS pH 7.4, room temperature
Description: as §1

MCF7 cells [4] = test: Western blot of Nur77, CD36 and FABP4; type: cell-based, human
Description: MCF7 and MDA‐MB‐231 cells were treated with various concentrations of peptide. The cells were then collected and lysed in NP40 lysis buffer. Total protein was quantified using a BCA assay kit (Beyotime, P0010S). The proteins were separated by SDS‐PAGE and transferred onto a PVDF membrane. The PVDF membrane was blocked in TBST containing 5% non‐fat milk, and then incubated with primary antibodies overnight at 4 °C. Subsequently, membranes were incubated with horseradish peroxidase‐conjugated antirabbit or antimouse IgG secondary antibody for 1 h at room temperature. The membranes were analyzed by a Tanon‐5200 Multi Gel Imaging Analysis System (Tanon) and quantified by ImageJ software.

Nur77-PPARγ complex = molecular target: T1, Nur77-PPARγ complex (Homo sapiens, UniProt P22736); test: NanoBiT assay of Nur77-PPARγ complex formation in HEK293T cells; type: cell-based; settings: 1 × 10^−5 M peptide, 1 h, n = 3
T1 construct: expressed in transfected cells; host or cells: HEK293T
T1 sequence (P22736 whole entry, one chain of several): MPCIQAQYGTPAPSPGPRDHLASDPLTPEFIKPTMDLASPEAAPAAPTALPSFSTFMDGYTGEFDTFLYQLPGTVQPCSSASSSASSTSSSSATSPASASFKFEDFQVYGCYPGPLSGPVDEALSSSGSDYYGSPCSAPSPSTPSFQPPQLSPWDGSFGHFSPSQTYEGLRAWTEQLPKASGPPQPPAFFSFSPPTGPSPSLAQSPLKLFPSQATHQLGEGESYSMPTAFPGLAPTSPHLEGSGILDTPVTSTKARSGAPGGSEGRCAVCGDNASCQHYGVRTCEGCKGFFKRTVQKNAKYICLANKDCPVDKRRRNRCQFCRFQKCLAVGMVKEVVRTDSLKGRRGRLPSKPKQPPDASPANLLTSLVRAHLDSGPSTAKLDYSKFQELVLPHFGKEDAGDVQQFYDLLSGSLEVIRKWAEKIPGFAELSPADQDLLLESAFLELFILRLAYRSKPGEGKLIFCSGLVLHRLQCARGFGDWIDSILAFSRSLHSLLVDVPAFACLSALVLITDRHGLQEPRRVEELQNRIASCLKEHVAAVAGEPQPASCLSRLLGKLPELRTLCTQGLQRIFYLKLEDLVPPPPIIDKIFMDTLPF
Description: HEK293T cells were seeded in a poly‐d‐lysine‐coated black 96‐well cell culture plate at 10 000 cells per well in 100 µL culture medium. The next day, the master mix of 100 ng receptor construct containing the PPARγ‐LargeBit and SmallBit‐Nur77 plasmids (w/w, 50 ng:50 ng) was diluted in Opti‐MEM Medium (Gibco, 11058‐021), then P3000 Reagent was added. Meanwhile, 0.15 µL Lipofectamine 3000 reagent (ThermoFisher, L3000015) was added to 5 µL Opti‐MEM Medium. Subsequently, diluted DNA was added to Lipofectamine 3000 reagent (V/V, 1:1) and incubated for 15 min at room temperature. A mixture containing the above plasmids and Lipofectamine 3000 was prepared and added to each well. After 24 h, the cells were treated with 1 × 10^−5 M peptides (TAT, T‐CY14, S‐CY14, and ST‐CY14) or variable concentrations of ST‐CY‐14 (0.1/0.2/0.5/1/2/5/10/20/40 × 10^−6 M) for 1 h. The culture medium was replaced with 90 µL Tyrode's solution (Solarbio, T1420). Then, 10 µL furimazine (5 × 10^−5 M) was added to each well and the luminescence signal was measured every 86 s for 1 h at 37 °C.

[5] = tested on: mutated Nur77-EGFP (Gln571, Glu398, Phe598); test: MST with mutated Nur77-EGFP in HEK293T cell lysate; type: binding; settings: Nur77 mutated at Gln571, Glu398 and Phe598, Monolith NT.115, 40% MST power
Description: The MST measure for the affinity of the peptide with purified Nur77 LBD protein was performed by Dianthus (Nano Temper). First, 1 × 10^−5 M protein was labeled with fluorescent dye and incubated with variable concentrations (0.1/0.4/0.8/1.6/3.1/6.3/12.5/25/50/100 × 10^−6 M) of peptides in PBST (containing 0.05% Tween‐20) (v/v, 10 µL: 10 µL). Incubated at room temperature away from light for 20 min, the mixture was loaded into the capillary and scanned. The MST measure for the affinity of the peptide with mutated Nur77‐EGFP was performed by Monolith NT.115 (Nano Temper). The HEK293T cell lysate was collected after transfection with the mutated Nur77‐EGFP plasmid for 48 h. The level of mutated Nur77‐EGFP was verified by the detection of fluorescence intensity. Different concentrations (0.1/0.4/0.8/1.6/3.1/6.3/12.5/25/50/100 × 10^−6 M) of ST‐CY14 were mixed with the cell lysate (v/v, 5 µL:5 µL) and incubated for 20 min. The measurement was carried out at 40% MST power.

Solubility test in PBS = type: physicochemical; settings: PBS buffer, aqueous buffer, 1 mg in 50 µL, gradient diluted from 20 to 0.078125 mg mL^−1, OD at 600 nm (turbidity), plate reader
Description: Mix 1 mg ST‐CY14 or Csn‐B (Shanghai Sunny Biotech) in 50 µL PBS buffer, and then transfer 40 µL the suspension to a 96‐well plate. The suspension was gradient diluted from 20 to 0. 07 8125 mg mL^−1. OD values were measured at 600 nm on a Cytation 5 (Biotek, USA) plate reader. PBS was set as a blank control.

MCF7 cells [6] = test: Scratch (wound-healing) assay; type: cell-based, human; settings: MCF7, 12 h
Description: MCF7 and MDA‐MB‐231 cells were seeded in 6‐well plates and cultured overnight. Once the cell density reached 90%, a line was scratched along the center of the 6‐well plate and images were taken randomly in the scratch domain under a microscope. The cells in each well were then treated with peptides of varying concentrations for 12 h, after which images were taken again in the scratch domain. The formula used to calculate the scratch healing rate was as follows: Scratch healing rate (%) = [(Scratch area at 0 h – Scratch area at 12 h) […] Scratch area at 0 h] × 100%.

MCF7 cells [7] = test: Cell viability assay (CCK-8); type: cell-based, human; settings: MCF7, 5 × 10^−6 M, 24 h
Description: as §2

C[C@@H](O)[C@@H]1NC(=O)[C@H](CCCNC(=N)N)NC(=O)[C@H](CCCNC(=N)N)NC(=O)[C@@](C)(NC(=O)[C@H](Cc2ccccc2)NC(=O)CNC(=O)[C@H](CCCCN)NC(=O)[C@H](CS)NC(=O)CNC(=O)[C@H](CCC(=O)O)NC(=O)[C@@H](N)CS)CCCC=CCCC[C@@](C)(C(=O)N[C@@H](CCCNC(=N)N)C(=O)N[C@@H](Cc2ccc(O)cc2)C(=O)N[C@@H](Cc2ccc(O)cc2)C(=O)NCC(=O)N[C@@H](CCCNC(=N)N)C(=O)N[C@@H](CCCCN)C(=O)N[C@@H](CCCCN)C(=O)N[C@@H](CCCNC(=N)N)C(=O)N[C@@H](CCCNC(=N)N)C(=O)N[C@@H](CCC(N)=O)C(=O)N[C@@H](CCCNC(=N)N)C(=O)N[C@@H](CCCNC(=N)N)C(=O)N[C@@H](CCCNC(=N)N)C(N)=O)NC1=O [ST-CY14] (H-CEGCKGF[S5]RRT[S5]RYYGRKKRRQRRR-NH2; staple 8-12)
Cell viability / proliferation (MDA-BoM-1833 cells): significantly attenuated breast tumor cell proliferation | CD36 and FABP4 transcription (qPCR) (MCF7 cells [1]): dose‐dependently inhibited CD36 and FABP4 expression at the transcriptional level | Cell viability / proliferation (MDA-MB-231 cells): significantly attenuated breast tumor cell proliferation | half-life at 90.9 µM (α-chymotrypsin [2]): 1.46 h | Improvement of proteolytic half-life versus T-CY14 (α-chymotrypsin [3]): seventeen‐fold improvement | CD36 and FABP4 protein expression (immunoblot) (MCF7 cells [4]): inhibited the protein expression of CD36 and FABP4 | Nur77 protein expression (immunoblot) (MCF7 cells [4]): increase in Nur77 expression | Effect on NanoBiT luminescence (Nur77-PPARγ complex) (Nur77-PPARγ complex): effectively inhibited the formation of the Nur77‐PPARγ complex | Interaction with mutated Nur77 (MST) [5]: disrupted the interaction | solubility (Solubility test in PBS): > 20 mg/mL | Scratch healing (MCF7 cells [6]): suppressed the scratch healing | Cell viability / proliferation (MCF7 cells [7]): significantly attenuated breast tumor cell proliferation
